Where two headings read alike, the source gives them in different places.
Tested on: MDA-435 cells
Assay: Apoptosis: cell death detection by ELISA, MDA-435
Assay type: cell-based, human
Settings: for fold induction at 1 µM / fold induction at 3.3 µM / fold induction at 10 µM: Homo sapiens, read-out: Fold induction of apoptosis compared to no drug control
Protocol: ER- breast carcinoma, human (MDA-435) obtained from Dr. Janet Price, MDA Cancer Center, Houston, Tex., were grown in Gibco's RPMI 1640 media supplemented with sodium pyruvate, 10% FBS and 13 ng/mL gentamicin. Cells were incubated at 37° C., 4.5% CO2 and 95.5% humidified air.
2. Apoptosis: Cell death detection by ELISA:
Compounds of formula 1 were tested for the ability to cause apoptosis as follows:
Cells and media were collected, cells were pelleted, resuspended in 100 μl lysis buffer (50 mM Tris-Cl (pH=8.0), 20 mM EDTA, 1% NP-40e) and incubated 30 minutes at 4° C. to lyse. Cell debris was spun down and an aliquot (30 μl) of the […] was removed for protein determination and stored at -20° C. An additional 280 μl of lysis buffer, was added, mixed thoroughly and spun down at 14,000 RPM for 10 minutes at 4° C. An aliquot was removed (180 μl) and the sample was stored at -20° C. until testing.
A commercially available apoptosis detection kit, obtained from Boehringer Mannheim (Cat. No. 1544-674), was used as per the directions provided with the kit (Cell Death Detection ELISA). However, the protocol was modified in that a 1:40 to 1:100 dilution of sample was prepared, rather than the recommended 1:10 dilution, due to the increase in cell number used to prepare the sample extract and the subsequent increase in ELISA reactivity. The assay measures apoptosis by quantifying the amount of nucleosomal fragmentation from the extracts of cells treated with the test compounds (samples). These nucleosomal fragments, generated by the activation of endonucleases, are a known downstream effector of apoptosis. Antihistone antibodies are used to fix any nucleosomal fragments in the sample to the well of the microtiter plates. The sample is then incubated with anti-DNA antibodies conjugated to peroxidase and subsequently incubated with the peroxidase substrate, ABTS. The resulting colorimetric change is measured spectrophotometrically at 405/490nm.
The total protein content of each sample was determined for the purpose of normalizing the ELISA values to amount of sample loaded. Microplate assay protocol described in the instruction manual, for (Biorad DC Assay, Cat.#500-0116) section 5.2. The protein concentrations were calculated based upon a linear regression curve.
d) ELISA assay calculations
Relative ELISA O.D. readings are determined by subtracting the ELISA plate background O.D. value. No drug control O.D. value (lysis buffer only) was subtracted from sample O.D. value. A correction coefficient (CC), based on the sample protein concentration compared to no drug control, was determined to correct the sample O.D. following subtraction of the background O.D. (BCS O.D.). The fold increase over no drug control is calculated and normalized to the total protein concentration of the samples by multiplying against the correction coefficient.
To determine the fold increase in ELISA O.D., obtain the following O.D. measurements:
ELISA plate background--lysis buffer only (EPB);
no drug treated control--cell sample treated with DMSO (NDT);
drug treated sample--cell sample treated with a compound of formula 1 (DT) Subtract EPB from NDT (NDT-EPB) and DT (DT-EPB). The fold increase of the treated over the control is then (DT-EPB)/(NDT-EPB).
To determine the total protein concentration of the samples, obtain the total protein concentration in mg/ul calculated using standard linear regression formula (y=mx+b) based on BSA standards. B=ELISA background. Protein concentration (PC)(mg/ml)=(sample absorbance-b)/x.
Correction coefficient (cc) is (NDT)(PC)/(DT)(PC).
Determine fold increase of ELISA (FT) normalized to total PC:
nDT is DT×cc (which is DT O.D. normalized to PC)
nNDT is NDT×cc (which is NDT O.D. normalized to PC)
FI normalized to PC is nDT/nNDT.

C/C(=C/C=C/C(C)=C/C(=O)Nc1ccc(O)cc1)c1cc(C(F)(F)F)cc(C(F)(F)F)c1 [N-(4-hydroxyphenyl)-(2E,4E,6Z)-7-[3,5-bis(trifluoromethyl)phenyl]-3,7-dimethyl-2,4,6-heptatrienamide]
fold induction at 1 µM (MDA435, 24 h, 24 hrs): 3
fold induction at 3.3 µM (MDA435, 24 h, 24 hrs): 6
fold induction at 10 µM (MDA435, 24 h, 24 hrs): 6
fold induction at 1 µM (MDA435, 48 h, 48 hrs): 3
fold induction at 3.3 µM (MDA435, 48 h, 48 hrs): 10
fold induction at 10 µM (MDA435, 48 h, 48 hrs): 16
fold induction at 1 µM (MDA435, 72 h, 72 hrs): 4
fold induction at 3.3 µM (MDA435, 72 h, 72 hrs): 12
fold induction at 10 µM (MDA435, 72 h, 72 hrs): 34
Induction of apoptosis (in words) (after 24 hours): induces significant apoptosis

— patent US6310247A, “7-aryl-6(Z)-heptatrienoic acid retinamides” (Hoffmann-LA Roche Inc., priority 1999, dated 2001)
